Laboratory results from article PMC9224512, “New Insights into the Determinants of Specificity in Human Type I Arginase: Generation of a Mutant That Is Only Active with Agmatine as Substrate” (International Journal of Molecular Sciences, 2022).
Residue numbers refer to the chain shown, from its start.

How the values were obtained:
Format in all cases: biochemical
[1] = target: T1, type I human arginase D181T (Homo sapiens, UniProt P05089, D181T); assay: Kinetic and inhibition studies, D181T mutant; settings: substrate arginine
T1 sequence (P05089 1-322 D181T): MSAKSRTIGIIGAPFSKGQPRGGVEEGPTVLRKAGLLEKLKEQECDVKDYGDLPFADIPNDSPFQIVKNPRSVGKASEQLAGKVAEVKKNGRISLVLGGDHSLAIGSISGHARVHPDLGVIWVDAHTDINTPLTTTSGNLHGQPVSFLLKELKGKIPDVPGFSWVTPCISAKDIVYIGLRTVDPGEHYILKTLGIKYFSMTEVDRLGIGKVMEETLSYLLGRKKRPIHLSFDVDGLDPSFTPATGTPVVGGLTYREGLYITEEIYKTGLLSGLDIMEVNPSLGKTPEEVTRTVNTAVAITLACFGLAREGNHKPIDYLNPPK
Description: (§1) Bacterial cultures were grown with shaking at 37 °C in Luria Broth media, in the presence of ampicillin (100 μg/mL). The wild-type and mutant human liver arginase cDNAs were directionally cloned into the pBluescript II KS(+) expression vector and then expressed in E. coli JM109, following induction with 1 mM isopropyl β-D-thiogalactopyranoside. The bacterial cells were disrupted by sonication on ice (5 × 30 s pulses), centrifuged for 20 min at 12,000× g, and the obtained supernatant was precipitated with ammonium sulfate (60% saturation). The pellet, collected by centrifugation at 12,000× g for 10 min, was re-suspended in buffer 5 mM Tris–HCl (pH 7.5) containing 2 mM MnCl2 and dialyzed for 6 h at 4 °C against the same buffer. After incubation with 5 mM MnCl2 for 10 min at 60 °C, the enzyme variants were purified as previously described. The purity of the enzymes was evaluated by SDS–PAGE stained by Coomassie blue and immunodetection using an anti- rat arginase I antibody.
(§2) The single, double, triple, and chimera variants of human arginase type I were obtained by PCR, using the QuickChange site-directed mutagenesis kit (Stratagene, La Jolla, CA, USA); the plasmid pBluescript II KS(+) containing the human liver arginase cDNA was used as template. To obtain the chimeric species of human arginase type I, serial mutations were made in each loop to be modified, using as template DNA the wild-type arginase gene or the previous done mutation, subcloned in the plasmid pBluescript II KS (+). Specifically, the residues present in the arginase structure were replaced by those corresponding to the agmatinase sequence of E. coli.
(§3) All assays were initiated by adding the enzyme to a previously equilibrated buffer with the substrate in solution (the concentrations of used substrates were between 0.2–3 fold the Km). Urea was determined by a colorimetric method with α-isonitrosopropiophenone. The protein concentrations were determined by the Bradford’s method, with bovine serum albumin as standard. Initial velocity and enzymatic inhibition experiments were performed in duplicate and repeated three times. The inhibitory patterns were initially determined by double reciprocal plots and re-plots of intercepts and slopes versus inhibitor concentrations. […] Velocities are expressed as μmol of urea/10 min.

[2] = target: T2, Chimera A2 (I129T/N130Y/T131A+∆ P132-T134) of human arginase type I (Homo sapiens, UniProt P05089, DEL129-131/I129T/L133Y/N130Y/P132T/T134A); assay: Kinetic and inhibition studies, Chimera A2
T2 construct: made in house; host or cells: E. coli JM109
T2 sequence (P05089 with tags, fused parts or gaps DEL129-131/P132T/L133Y/T134A): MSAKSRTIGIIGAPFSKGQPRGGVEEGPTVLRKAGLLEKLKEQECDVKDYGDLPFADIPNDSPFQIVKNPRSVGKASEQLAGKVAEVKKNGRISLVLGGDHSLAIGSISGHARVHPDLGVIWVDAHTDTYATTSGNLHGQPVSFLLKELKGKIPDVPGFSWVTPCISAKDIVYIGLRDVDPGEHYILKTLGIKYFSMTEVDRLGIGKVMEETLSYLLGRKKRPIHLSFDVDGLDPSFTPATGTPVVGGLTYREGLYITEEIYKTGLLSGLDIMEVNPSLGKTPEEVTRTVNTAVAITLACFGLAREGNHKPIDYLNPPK
Description: as §1, §2, §3

[3] = target: T3, type I human arginase V182E (Homo sapiens, UniProt P05089, V182E); assay: Kinetic and inhibition studies, V182E mutant; settings: substrate arginine
T3 sequence (P05089 1-322 V182E): T1 sequence (P05089 1-322 D181T) with T181D, V182E
Description: as §1, §2, §3

[4] = target: T4, human arginase type I N139D (Homo sapiens, UniProt P05089, N139D); assay: Kinetic and inhibition studies, N139D mutant
T4 sequence (P05089 1-322 N139D): T1 sequence (P05089 1-322 D181T) with N139D, T181D
Description: as §1, §2, §3

[5] = target: T5, human arginase type I N130D-S137C (Homo sapiens, UniProt P05089, N130D/S137C); assay: Kinetic and inhibition studies, N130D-S137C mutant
T5 sequence (P05089 1-322 N130D/S137C): T1 sequence (P05089 1-322 D181T) with N130D, S137C, T181D
Description: as §1, §2
All assays were initiated by adding the enzyme to a previously equilibrated buffer with the substrate in solution (the concentrations of used substrates were between 0.2–3 fold the Km). Urea was determined by a colorimetric method with α-isonitrosopropiophenone. The protein concentrations were determined by the Bradford’s method, with bovine serum albumin as standard. […]

[6] = substrate = labelled compound, pH 9.5, 2 mM Mn2+

Row | SMILES | kcat [1] [s⁻¹] | Km ([1]; pH 9.5, 2 mM Mn2+) [mM] | Inhibition type ([2]; substrate agmatine) | Kis ([2]; substrate agmatine) [mM] | kcat [3] [s⁻¹] | Km ([3]; pH 9.5, 2 mM Mn2+) [mM] | kcat ([4]; substrate = labelled compound) [s⁻¹] | Km [4, 6] [mM] | kcat ([5]; substrate = labelled compound) [s⁻¹] | Km [5, 6] [mM] | Inhibition type [1] | Kis [1] [mM] | Inhibition by ornithine compared with wild-type arginase ([2]; pH 9.5, 37 °C, substrate 5 mM, Figure 4A) | Inhibition type [3] | Kis [3] [mM] | Ki ([4]; read-out: Ki^orn) [mM] | Ki ([5]; read-out: Ki^orn) [mM]
1 | N=C(N)NCCC[C@H](N)C(=O)O [Arginine, L-arginine] | 191 ± 8 | 5.3 ± 0.8 | linear competitive inhibition | 9 ± 3 | 187 ± 10 | 2.4 ± 0.2 | 64 | 4.4 | 23 | 6.5 |  |  |  |  |  |  | 
2 | NCCC[C@H](N)C(=O)O [Ornithine, L-ornithine] |  |  |  |  |  |  |  |  |  |  | Competitive | 1.6 ± 0.3 | much more insensitive to inhibition by ornithine than the wild-type arginase | Competitive | 3.2 ± 0.2 | 6.2 | 7.1
